In patent US8883789B2, “Piperazine derivatives and their use as positive allosteric modulators of mGluR5 receptors” (Boehringer Ingelheim International GmbH, priority 2011, dated 2014):

Biological target: T1, human recombinant mGluR5 (Homo sapiens, UniProt P41594)
T1 construct: expressed in transfected cells; hygromycin and geneticin selection
Assay: positive modulation of mGluR5, calcium based FLIPR assay
Conditions: HEK 293 cell line expressing human recombinant mGluR5; Ca2+ peak height after glutamate at approximately 5% basal stimulation; nonlinear regression
Method in brief: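 HEK293 cells with tetracycline-free induction, Calcium-4 dye-loaded in Ringer pH 7.4. Compound added 5 min before glutamate at ~5% of maximal effect, 1% DMSO. EC50 from peak Ca2+ fluorescence, normalized to basal glutamate (100%) and 10 μM CDPPB (200%), via nonlinear regression.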

T1 sequence (P41594 21-1212): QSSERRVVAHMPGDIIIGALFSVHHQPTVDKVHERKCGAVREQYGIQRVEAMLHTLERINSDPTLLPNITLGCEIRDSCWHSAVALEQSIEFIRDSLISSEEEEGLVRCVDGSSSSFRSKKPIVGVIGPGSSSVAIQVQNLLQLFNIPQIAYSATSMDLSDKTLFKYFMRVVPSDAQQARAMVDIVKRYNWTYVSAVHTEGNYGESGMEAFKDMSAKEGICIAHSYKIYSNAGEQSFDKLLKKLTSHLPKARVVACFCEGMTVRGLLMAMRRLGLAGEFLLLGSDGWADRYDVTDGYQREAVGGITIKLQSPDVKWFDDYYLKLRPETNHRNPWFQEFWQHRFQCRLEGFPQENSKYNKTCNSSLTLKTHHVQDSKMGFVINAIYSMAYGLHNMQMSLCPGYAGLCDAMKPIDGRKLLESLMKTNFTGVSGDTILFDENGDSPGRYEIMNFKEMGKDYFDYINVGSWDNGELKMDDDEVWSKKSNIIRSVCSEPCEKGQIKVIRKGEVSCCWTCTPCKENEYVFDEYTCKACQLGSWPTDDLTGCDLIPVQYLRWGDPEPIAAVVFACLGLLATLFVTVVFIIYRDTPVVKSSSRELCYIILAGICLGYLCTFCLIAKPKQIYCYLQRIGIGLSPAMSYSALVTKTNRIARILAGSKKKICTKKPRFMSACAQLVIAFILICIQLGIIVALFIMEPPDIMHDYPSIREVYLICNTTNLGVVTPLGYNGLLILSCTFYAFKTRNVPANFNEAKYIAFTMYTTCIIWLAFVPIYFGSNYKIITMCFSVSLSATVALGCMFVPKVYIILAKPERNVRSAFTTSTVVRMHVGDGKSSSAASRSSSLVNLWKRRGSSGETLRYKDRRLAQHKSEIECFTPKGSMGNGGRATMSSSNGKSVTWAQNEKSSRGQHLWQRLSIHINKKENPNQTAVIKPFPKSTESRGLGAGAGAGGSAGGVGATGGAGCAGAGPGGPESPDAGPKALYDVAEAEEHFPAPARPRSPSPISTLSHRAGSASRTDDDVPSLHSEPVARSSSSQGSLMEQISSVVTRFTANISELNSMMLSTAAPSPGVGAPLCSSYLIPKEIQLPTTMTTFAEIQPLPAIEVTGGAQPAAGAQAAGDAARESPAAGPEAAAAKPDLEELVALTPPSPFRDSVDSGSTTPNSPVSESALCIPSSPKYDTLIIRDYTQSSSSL

| SMILES | EC50 |
| --- | --- |
| CC1(C)CN(C(=O)c2coc(C3CC3)n2)CCN1C(=O)c1ncn(-c2ccccc2)n1 [Example 140] | 661 nM |
| COCc1c(C(=O)N2CCN(C(=O)c3ncn(-c4cccc(Cl)c4)n3)C(C)C2)oc2ccccc12 (stereo not drawn) [Example 274] | 810 nM |
| COc1cc(Cl)cc(C(=O)N2CCN(C(=O)c3nnn(-c4ccccc4)n3)C(C)(C)C2)n1 [Example 165] | 25 nM |
| CC1(C)CN(C(=O)c2cc(Cl)c3c(c2)OCCO3)CCN1C(=O)c1ncn(-c2cccc(F)c2)n1 [Example 3] | 86 nM |
| Cc1c(C(=O)N2CCN(C(=O)c3ncn(-c4cccc(Cl)c4)n3)C[C@@H]2C)oc2ccc(F)cc12 [Example 253] | 336 nM |
| CC1CN(C(=O)c2ncn(-c3cccc(Cl)c3)n2)CCN1C(=O)c1cc2ccccc2o1 (stereo not drawn) [Example 214] | 428 nM |
| COc1ccc2c(C)c(C(=O)N3CCN(C(=O)c4ncn(-c5cccc(Cl)c5)n4)CC3C)oc2c1 (stereo not drawn) [Example 213] | 817 nM |
| CC(=O)Nc1ccc2oc(C(=O)N3CCN(C(=O)c4ncn(-c5ccccc5)n4)C(C)(C)C3)c(C)c2c1 [Example 133] | 1110 nM |
| COc1cc(OC)cc(C(=O)N2CCN(C(=O)c3ncn(-c4cccc(Cl)c4)n3)CC2C)c1 (stereo not drawn) [Example 224] | 369 nM |
| CC1CN(C(=O)c2ncn(-c3cccc(Cl)c3)n2)CCN1C(=O)c1ccc2c(c1)nc(CC1CCCC1)n2C (stereo not drawn) [Example 229] | 512 nM |
| COc1cc2cc(C(=O)N3CCN(C(=O)c4ncn(-c5cccc(Cl)c5)n4)C(C)(C)C3)nc(OC)c2cc1OC [Example 32] | 179 nM |
| COc1cccc(C(=O)N2CCN(C(=O)c3ncn(-c4cc(F)ccc4F)n3)C(C)(C)C2)n1 [Example 197, [1-(2,5-Difluoro-phenyl)-1H-[1,2,4]triazol-3-yl]-[4-(6-methoxy-pyridine-2-carbonyl)-2,2-dimethyl-piperazin-1-yl]-methanone] | 149 nM |
| COc1cccc(C(=O)N2CCN(C(=O)c3ncn(-c4cccc(F)c4)n3)C3(CCC3)C2)n1 [Example 307] | 754 nM |
| CC1(C)CN(C(=O)c2cc(Cl)c3c(c2)OCCO3)CCN1C(=O)c1nnn(-c2cccc(F)c2)n1 [Example 170] | 37 nM |
| Cc1c(C(=O)N2CCN(C(=O)c3ncn(-c4ccccc4)n3)CC2C)oc2ccc(F)cc12 (stereo not drawn) [Example 241] | 987 nM |
| CCC1CN(C(=O)c2ncn(-c3cccc(F)c3)n2)CCN1C(=O)c1cc(Br)c(Br)o1 (stereo not drawn) [Example 260] | 153 nM |
| COCc1c(C(=O)N2CCN(C(=O)c3ncn(-c4cccc(Cl)c4)n3)CC2C)oc2ccccc12 (stereo not drawn) [Example 217] | 1540 nM |
| CCC[C@H]1CN(C(=O)c2ncn(-c3cccc(F)c3)n2)CCN1C(=O)c1cc(Br)c(Br)o1 [Example 262] | 193 nM |

| SMILES | EC50 |
| --- | --- |
| CC(C)c1cccc(C(=O)N2CCN(C(=O)c3nnn(-c4ccccc4)n3)C(C)(C)C2)c1 [Example 167] | 15 nM |
| CC1CN(C(=O)c2ccc3ccn(C)c3c2)CCN1C(=O)c1ncn(-c2cccc(Cl)c2)n1 (stereo not drawn) [Example 272] | 350 nM |
| CC1(C)CN(C(=O)c2cccc(C3CC3)n2)CCN1C(=O)c1ncn(-c2ccccc2)n1 [Example 183] | 49 nM |
| COc1cccc(C(=O)N2CCN(C(=O)c3ncn(-c4cccc(F)c4)n3)C3(CC3)C2)n1 [Example 304, {4-[1-(3-Fluoro-phenyl)-1H-[1,2,4]-triazole-3-carbonyl]-4,7-diaza-spiro[2.5]oct-7-yl}-(6-methoxy-pyridin-2-yl)-methanone] | 845 nM |
| COc1cccc(C(=O)N2C[C@@H](C)N(C(=O)c3ncn(-c4cccc(F)c4)n3)[C@@H](C)C2)n1 [Example 303] | 215 nM |
| COc1cc(Cl)cc(C(=O)N2CCN(C(=O)c3nnn(-c4cccc(Cl)c4)n3)C(C)(C)C2)n1 [Example 172] | 26 nM |
| CC1(C)CN(C(=O)c2cccc(Cl)c2)CCN1C(=O)c1nnn(-c2ccc(F)cc2)n1 [Example 193] | 173 nM |
| COc1nc(C(=O)N2CCN(C(=O)c3ncn(-c4ccccc4)n3)C(C)(C)C2)cc2ccccc12 [Example 97] | 25 nM |
| CC1(C)CN(C(=O)c2cc(Br)c(Br)o2)CCN1C(=O)c1ncn(-c2cccc(F)c2)n1 [Example 175] | 104 nM |
| Cc1oc2ccccc2c1C(=O)N1CCN(C(=O)c2ncn(-c3ccccc3)n2)C(C)(C)C1 [Example 106] | 89 nM |
| Cc1ccc2oc(C(=O)N3CCN(C(=O)c4ncn(-c5cccc(Cl)c5)n4)C(C)C3)c(C)c2c1 (stereo not drawn) [Example 281] | 1500 nM |
| CCCOc1nc(C(=O)N2CCN(C(=O)c3ncn(-c4ccccc4)n3)C(C)(C)C2)cc2ccccc12 [Example 99] | 28 nM |
| COc1cc(C(=O)N2CCN(C(=O)c3ncn(-c4cccc(Cl)c4)n3)C(C)C2)ccc1C (stereo not drawn) [Example 277] | 507 nM |
| CC1CN(C(=O)c2cc3c(Cl)cccc3s2)CCN1C(=O)c1ncn(-c2ccccc2)n1 (stereo not drawn) [Example 293] | 361 nM |
| Cc1c(C(=O)N2CCN(C(=O)c3ncn(-c4cccc(Cl)c4)n3)CC2C)oc2ccc(F)cc12 (stereo not drawn) [Example 212] | 568 nM |
| COc1cc(C(=O)N2CCN(C(=O)c3ncn(-c4cccc(C)c4)n3)CC2C)ccc1C (stereo not drawn) [Example 235] | 314 nM |
| O=C(c1cc(Br)c(Br)o1)N1CCN(C(=O)c2ncn(-c3cccc(F)c3)n2)C2(CCC2)C1 [Example 306] | 445 nM |
| COCc1c(C(=O)N2CCN(C(=O)c3ncn(-c4ccccc4)n3)C(C)(C)C2)oc2ccccc12 [Example 107] | 108 nM |

Second part, the compound after the results:

| EC50 | SMILES |
| --- | --- |
| 39 nM | CC1(C)CN(C(=O)c2cccc(Cl)c2)CCN1C(=O)c1ncn(-c2ccccc2)n1 [Example 186, [4-(3-Chloro-benzoyl)-2,2-dimethyl-piperazin-1-yl]-(1-phenyl-1H-[1,2,4]-triazol-3-yl)-methanone] |
| 19 nM | Cc1cccc(-n2cnc(C(=O)N3CCN(C(=O)c4cccc(C5CC5)n4)CC3(C)C)n2)c1 [Example 181] |
| 136 nM | CN(C)c1cccc(C(=O)N2CCN(C(=O)c3ncn(-c4cccc(Cl)c4)n3)C(C)(C)C2)c1 [Example 44] |
| 101 nM | CC1(C)CN(C(=O)c2cc(Cl)cc(Cl)c2)CCN1C(=O)c1ncn(-c2ccccc2)n1 [Example 153] |
| 101 nM | COc1cccc(C(=O)N2CCN(C(=O)c3ncn(-c4cccc(F)c4)n3)C(C)(C)C2)n1 [Example 4] |
| 366 nM | CC1(C)CN(C(=O)c2cccc(C3CCOCC3)n2)CCN1C(=O)c1ncn(-c2cccc(Cl)c2)n1 [Example 176, [1-(3-Chloro-phenyl)-1H-[1,2,4]-triazol-3-yl]-{2,2-dimethyl-4-[6-(tetrahydro-pyran-4-yl)-pyridine-2-carbonyl]-piperazin-1-yl}-methanone] |
| 115 nM | CC1(C)CN(C(=O)c2cccc(-c3ccncc3)c2)CCN1C(=O)c1ncn(-c2cccc(Cl)c2)n1 [Example 30] |
| 188 nM | CC(C)c1cccc(C(=O)N2CCN(C(=O)c3ncn(-c4ccccc4)n3)C(C)(C)C2)n1 [Example 206, [4-(6-isopropyl-pyridine-2-carbonyl)-2,2-dimethyl-piperazin-1-yl]-(1-phenyl-1H-[1,2,4]triazol-3-yl)-methanone] |
| 109 nM | CC1(C)CN(C(=O)c2cc(Cl)cc(C(F)(F)F)c2)CCN1C(=O)c1ncn(-c2cccc(Cl)c2)n1 [Example 29] |
| 30 nM | CC1(C)CN(C(=O)c2cccc(Br)c2)CCN1C(=O)c1ncn(-c2cccc(Cl)c2)n1 [Example 15] |
| 164 nM | CC1(C)CN(C(=O)c2cccc(-c3ccncc3)n2)CCN1C(=O)c1ncn(-c2cccc(Cl)c2)n1 [Example 86] |
| 32 nM | CC1(C)CN(C(=O)c2cccc(C(F)(F)F)c2)CCN1C(=O)c1ncn(-c2ccccc2)n1 [Example 98] |
| 120 nM | Cc1ccc(Cl)cc1C(=O)N1CCN(C(=O)c2ncn(-c3cccc(Cl)c3)n2)C(C)(C)C1 [Example 57] |
| 57 nM | CC1(C)CN(C(=O)c2cccc(Cl)c2)CCN1C(=O)c1ncn(-c2cccc(F)c2)n1 [Example 190] |
| 95 nM | Cc1cccc(-n2cnc(C(=O)N3CCN(C(=O)c4c(C)oc5ccccc45)CC3(C)C)n2)c1 [Example 10] |
| 131 nM | Cc1oc2ccccc2c1C(=O)N1CCN(C(=O)c2ncn(-c3cccc(F)c3)n2)C(C)(C)C1 [Example 5] |
| 48 nM | COc1cccc(C(=O)N2CCN(C(=O)c3ncn(-c4cccc(Cl)c4)n3)C(C)(C)C2)n1 [Example 18] |
| 36 nM | Cc1cccc(-n2nnc(C(=O)N3CCN(C(=O)c4cccc(Cl)c4)CC3(C)C)n2)c1 [Example 189] |
| 1870 nM | CC1(C)CN(C(=O)c2cccc(S(C)(=O)=O)c2)CCN1C(=O)c1ncn(-c2ccccc2)n1 [Example 131] |
| 23 nM | CC1(C)CN(C(=O)c2cccc(C3CCCC3)c2)CCN1C(=O)c1ncn(-c2ccccc2)n1 [Example 144] |
| 76 nM | Cc1cc(C)cc(C(=O)N2CCN(C(=O)c3ncn(-c4ccccc4)n3)C(C)(C)C2)c1 [Example 113] |
| 53 nM | CCCOc1cccc(C(=O)N2CCN(C(=O)c3ncn(-c4cccc(Cl)c4)n3)C(C)(C)C2)c1 [Example 20] |
| 29 nM | CC1(C)CN(C(=O)c2cc3nccc(-c4ccccc4)n3n2)CCN1C(=O)c1ncn(-c2cccc(Cl)c2)n1 [Example 67] |
| 64 nM | CC1(C)CN(C(=O)c2cccc(Cl)c2)CCN1C(=O)c1nnn(-c2cccc(Cl)c2)n1 [Example 191] |
| 99 nM | CC1(C)CN(C(=O)c2cccc(-c3cnco3)c2)CCN1C(=O)c1ncn(-c2cccc(Cl)c2)n1 [Example 28] |
| 88 nM | CC(C)COc1cccc(C(=O)N2CCN(C(=O)c3ncn(-c4ccccc4)n3)C(C)(C)C2)c1 [Example 129] |
| 129 nM | CC1(C)CN(C(=O)c2cc3ccccc3c(C3CC3)n2)CCN1C(=O)c1ncn(-c2cccc(Cl)c2)n1 [Example 204] |
| 53 nM | Cc1cccc(-n2cnc(C(=O)N3CCN(C(=O)c4cc(Cl)c5c(c4)OCCO5)CC3(C)C)n2)c1 [Example 9] |
| 31 nM | CC(C)(C)c1cccc(C(=O)N2CCN(C(=O)c3ncn(-c4ccccc4)n3)C(C)(C)C2)c1 [Example 130] |
| 47 nM | Cc1ccc(C(=O)N2CCN(C(=O)c3ncn(-c4cccc(Cl)c4)n3)C(C)(C)C2)cc1Cl [Example 71] |
